{"source": "patent US20090048292A1", "about": "“SYNERGISTIC COMBINATION” (priority 2007, published 2009)", "key": {"[1]": {"test_system": "human SK-Mel28 melanoma cells", "assay": "Different angiogenesis inhibitors as monotherapy in human melanoma model SK-Mel28 (FIG. 1)", "format": "in vivo", "conditions": "daily treatment from tumor size 20-30 mm^2; ZK261991 orally 50 mg/kg per day", "experimental": "Human SK-MeI 28 melanoma cells were cultivated in RPMI1640 medium together with 1% glucose and 10% foetal calf serum. 3 million cells per animal have been transferred to NMRI nu/nu nude mice in a volume of 0,1 ml in a 1:1 mixture consisting of media and matri gel. With achieving the tumor size of about 20 mm^2, in this case on day 3, the treatment of the animals has been started.\nIn a human melanoma model SK-Mel28 different angiogenesis inhibitors have been tested. […] In this experiment the tumor have been daily treated with different compounds beginning after establishment of the tumors, respectively at a size of 20-30 mm^2. The compound ZK261991 was orally applied in a dosage of 50 mg/kg per day and in a volume of 0.1 ml/10 g body weight, as a 5% DMSO/Ethanol 1:1 mixture in 0.085 Myrj85®/0.9% NaCl formulation. ZK222584 (PTK/ZK, Vatalanib) comprised in the same formulation was applied. Further Bay43-9006 (Nexavar®) in 30% hydroxy propyl cyclodextrine (HP-β-CD), pH 5.0 in the same volume of 0.1 ml/10 g body weight was applied. […] However, no reaction could be determined with a dosage of 5 and 10 mg/kg (s. FIG. 2). The tumors have been treated in a daily manner with different MS-275 dosages, beginning with the set up at a size of ca. 20-30 mm^2. MS-275 was applied in 30% hydroxypropyl cyclodextrine (HP-β-CD), pH5.0, in a volume of 0.1 ml/10 g body weight."}, "[2]": {"test_system": "Human SK-MeI 28 melanoma cells", "assay": "Combination study of ZK 261991 and MS-275 in human SK-Mel 28 melanoma model in NMRI nu/nu nude mice (tumor area, tumor weight)", "format": "in vivo", "conditions": "for Tumor area on day 57, average: group average; for Tumor area of the single studied groups on day 57: single animals", "method": "For this, the animals have been randomized and separated into the following test group (8 animals per group, each):\nMS-275; 10 mg/kg/day 3. […] Untreated control (these animals received the solution solvent, only)\nThe compounds are orally daily applied via a probang till the end of the experiment on day 57. The tumor size was determined (length×width) after 6-7 days. On day 57, the animals were sacrificed by breaking the neck and the tumors were isolated. The weight of the tumors was determined. The tumor size (tumor area in mm^2) was inserted into a diagram, as function of the time. An average of the tumor weight of each group was calculated, as well as the variation and was inserted into a diagram. In the same time interval the tumor size was determined, also the body weight was determined by balancing. The data were inserted in a diagram as function of the time.\nThe tumors were treated in a daily manner with the different compounds beginning with the establishment, at a size of ca. 20.30 mm^2. […] For the calculation of the statistically signification the SigmaStat-programm with the One-Way-ANOVA-analysis was used.\nFor the calculation of the statistically significance the SigmaStat-program with a One-Way-ANOVA-analysis was used."}, "[3]": {"conditions": "day 57, ZK261991 50 mg/kg/day, MS-275 10 mg/kg/day, oral daily, alone or combined"}}, "note": "“And” between values parts separate entries of the source, which are not always exact repeats. Equal values may be shown once.", "data": [{"smiles": "CN(C)C(=O)Nc1cc(CNc2ccccc2C(=O)Nc2ccc3cn(C)nc3c2)ccn1", "note": "[ZK 261991, N′2′-{[2-(3,3-Dimethylureido)pyridine-4-yl]methyl}-N-(2-methyl-2H-indazol-6-yl)Anthranilamid]", "values": [{"measurement": "inhibitory effect onto the tumor growth, FIG. 1", "setting": "[1]", "result": "No inhibitory effect"}, {"measurement": "reaction of tumor growth (tumor area) to treatment, FIG. 3", "setting": "[2]; daily oral treatment, ZK261991 50 mg/kg/day, MS-275 10 mg/kg, alone or combined, One-Way-ANOVA", "result": "statistically significant but moderate result"}, {"measurement": "T/C value (tumor weight)", "setting": "[2]; [3]", "result": 0.55}, {"measurement": "reduction of the tumor weight in comparison to the untreated control (percentage of inhibition)", "setting": "[2]; [3]", "result": 45, "unit": "%"}, {"measurement": "Tumor area on day 57, average", "setting": "[2]; ZK 261991 50 mg/kg/day oral daily, day 57", "result": 104.7, "unit": "mm^2"}, {"measurement": "Tumor area of the single studied groups on day 57", "setting": "[2]; ZK 261991 50 mg/kg/day oral daily, day 57, 50 mg/kg/day", "result": "109.5 mm^2 and 100.1 mm^2 (2×) and 105.0 mm^2 and 118.8 mm^2 and 88.8 mm^2 and 116.3 mm^2 and 98.9 mm^2"}]}, {"smiles": "Clc1ccc(Nc2nnc(Cc3ccncc3)c3ccccc23)cc1", "note": "[ZK222584, Vatalanib]", "values": [{"measurement": "inhibitory effect onto the tumor growth, FIG. 1", "setting": "[1]", "result": "No inhibitory effect"}]}, {"smiles": "CNC(=O)c1cc(Oc2ccc(NC(=O)Nc3ccc(Cl)c(C(F)(F)F)c3)cc2)ccn1", "note": "[Bay43-9006]", "values": [{"measurement": "inhibitory effect onto the tumor growth, FIG. 1", "setting": "[1]", "result": "No inhibitory effect"}]}, {"smiles": "Nc1ccccc1NC(=O)c1ccc(CNC(=O)OCc2cccnc2)cc1", "note": "[MS-275, 3-pyridylmethyl-N-{4-[(2-amino-phenyl)-carbamoyl]benzyl}carbamate]", "values": [{"measurement": "reduction of the tumor weight in comparison to the untreated control (percentage of inhibition)", "setting": "[2]; [3]", "result": 0, "unit": "%"}, {"measurement": "Tumor area on day 57, average", "setting": "[2]; MS-275 10 mg/kg/day oral daily, day 57", "result": 135.7, "unit": "mm^2"}, {"measurement": "Tumor area of the single studied groups on day 57", "setting": "[2]; MS-275 10 mg/kg/day oral daily, day 57, 10 mg/kg/day", "result": "132.1 mm^2 and 169.1 mm^2 and 142.9 mm^2 and 128.6 mm^2 and 169.2 mm^2 and 104.2 mm^2 and 112.1 mm^2 and 127.2 mm^2"}]}]}
